Measured values from patent US20030162727A1, “Use of cyp1b1inhibitors for treating cancer” (priority 2000, published 2003).
pIC50, pKi: −log10 of the molar value. Values joined by “and” are separate entries in the source; they are usually repeats but may differ in a detail not shown here. Equal values may be shown once. Read-outs that look alike come from different tables or passages of the source.

How the values were obtained:
CYP1A1 = molecular target: T1, CYP1A1 (Homo sapiens, UniProt P04798); experiment: Flutamide 2-hydroxylation and inhibition, CYP1A1 compared with CYP1B1; format: biochemical; conditions: 2-hydroxylation of flutamide; times higher than CYP1B1
T1 sequence (P04798 1-512): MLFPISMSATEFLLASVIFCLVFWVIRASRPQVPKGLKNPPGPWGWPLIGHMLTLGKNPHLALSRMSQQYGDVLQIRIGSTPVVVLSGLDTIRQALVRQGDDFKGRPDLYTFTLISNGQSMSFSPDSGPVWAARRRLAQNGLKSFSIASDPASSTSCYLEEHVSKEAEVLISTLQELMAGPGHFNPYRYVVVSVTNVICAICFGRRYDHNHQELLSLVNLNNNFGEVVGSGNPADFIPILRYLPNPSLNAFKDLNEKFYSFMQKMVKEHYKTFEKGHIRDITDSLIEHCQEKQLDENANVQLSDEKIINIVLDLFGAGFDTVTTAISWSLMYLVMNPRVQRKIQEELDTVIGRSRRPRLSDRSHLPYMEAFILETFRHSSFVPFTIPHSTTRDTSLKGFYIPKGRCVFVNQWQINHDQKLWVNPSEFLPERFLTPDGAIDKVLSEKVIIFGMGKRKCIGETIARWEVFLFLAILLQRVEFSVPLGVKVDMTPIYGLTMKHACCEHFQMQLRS

CYP1B1 [1] = molecular target: T2, CYP1B1 (Homo sapiens, UniProt Q16678); experiment: in vitro; conditions: for pKi: Ki Values, Dixon re-plots of EROD activity, mean; for inhibition at 100 μM: human, pH 7.4
T2 sequence (Q16678 1-543): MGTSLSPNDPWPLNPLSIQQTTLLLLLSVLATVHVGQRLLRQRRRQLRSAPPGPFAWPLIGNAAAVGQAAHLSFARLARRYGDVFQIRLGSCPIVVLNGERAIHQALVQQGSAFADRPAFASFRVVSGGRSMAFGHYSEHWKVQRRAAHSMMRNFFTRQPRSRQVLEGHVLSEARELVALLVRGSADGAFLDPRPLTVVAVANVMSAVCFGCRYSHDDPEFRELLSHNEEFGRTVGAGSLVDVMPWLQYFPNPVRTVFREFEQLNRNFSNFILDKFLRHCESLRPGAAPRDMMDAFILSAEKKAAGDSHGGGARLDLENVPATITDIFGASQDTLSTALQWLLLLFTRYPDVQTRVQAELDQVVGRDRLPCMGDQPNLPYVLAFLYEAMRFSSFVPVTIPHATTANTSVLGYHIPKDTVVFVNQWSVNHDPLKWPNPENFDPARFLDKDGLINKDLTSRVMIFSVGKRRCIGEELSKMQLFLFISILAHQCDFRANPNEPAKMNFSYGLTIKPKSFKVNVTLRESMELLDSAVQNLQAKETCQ
Source text: Recent immunohistochemical analysis of P4501B1 protein in a variety of solid tumours identified tumour-specific enzyme expression (Murray et al, 1998). This provides a mechanism of resistance to currently used anticancer agents, as well as, an approach for targeted prodrug therapy. 7-ethoxyresorufin deethylase activity (EROD) was used to define interactions with cytochrome 1B1 (CYP1B1). 7-Ethoxyresorufin is a known substrate for P4501B1. […] For this purpose, inhibition constants (Ki) have been calculated using in vitro kinetics from CYP1B1-mediated EROD activity. EROD activity and assay has been described previously by various authors (Lubet et al., 1985, Arch. Biochem. Biophys. 238: pp 43-48; Gentest Corporation, 6 Henshaw St., Woburn, Mass. 01801 USA, data sheet given with CYP1B1, catalogue number P220). 7-Ethoxyresorufin is enzymatically deethylated to a product called resorufin. The appearance of resorufin was monitored by a fluorescence detector set at 550 nm and 582 nm (excitation and emission wavelengths). […] Incubations contained: phosphate buffer at pH 7.4, 7-ethoxyresorufin, CYP1B1 Supersomes from Gentest Co (catalogue number P220) and nicotine adenine dinucleotide phosphate (NADP) as cofactor.
The metabolism of anti-cancer drugs by CYP1B1 was studied using an inhibition of EROD assay. […] Ki values were determined by the Dixon's replots: see Table 2.

CYP1B1 [2] = molecular target: T2, CYP1B1; experiment: Biotransformation studies with CYP1B1; conditions: metabolites produced by CYP1B1 incubation but not control incubations
CYP1B1, CYP1A1, CYP1A2 = experiment: in vitro; conditions: human
[3] = tested on: CYP1B1, CYP1A1, and CYP1A2
V79MZ cells = experiment: cells; conditions: for pIC50: read-out: IC50 V79MZ (control vector)
Description: (§1) A Chinese hamster […] fibroblast cell line (V79MZ) and a clone expressing human CYP1B1 (V79MZh1B1), were grown at 37° C., 5%CO2 and at 90% saturated humidity, in DMEM (Dulbecco's modified eagles medium) high glucose type supplemented with 1 mM sodium pyruvate, 10% fetal calf serum, 100 U penicillin/ml and 100 μg streptomycin/ml. Neither cell line expresses endogenous P450s, although cytochrome P450 reductase is present in both cell lines. The parental and CYP1B1 expressing cell lines double in cell number every 10-12 h and were sub-cultured at 1:50 ratio (i.e. 1 ml of cells to 50 ml of fresh media) every 4-5 days. The cells were not allowed to reach confluency at any time, to ensure optimal cell physiological conditions and maximal cytochrome P450 activity. Cells were routinely used at 3rd-5th passage for all experiments.
(§2) Docetaxel was obtained from Rhone-Poulenc Rorer. Optimal growth conditions were established. The same conditions were used for both cell lines; V79MZ and V79MZh1B1 cells at 60-80% confluence were harvested and seeded at 0.5-1×10^3 cells per well in 96 well culture plates. […] Cells treated with solvent alone acted as a negative control.
(§3) Enzyme inhibition studies were undertaken by co-administration of docetaxel and the known P450 CYP1 inhibitor ANF (Sigma) at different concentration in the media. Stock solutions of ANF (1 mM, 10 mM and 100 mM) were dissolved in DMSO and added to the media to give final concentrations of 1 μM, 10 μM and 100 μM ANF (in each case the final concentration of DMSO in media was 0.1%). Following 24 h exposure to each drug (with or without inhibitor), the media were removed and replaced with fresh media without drug. In this study, cells were then grown for three doubling times (36 h) with the media changed at 24 hr. […] Media were removed from the wells and replaced with 200 μl of fresh media, followed by addition of 50 μl of MTT solution (50 mg/ml of MTT (Sigma) in sterile PBS), the cells were incubated at 37° C. in a humidified atmosphere with 5%CO2/95% air for 4 h. The MTT containing media was then removed and 200 μl of DMSO plus 25 μl of glycine buffer (0.1 M glycine/0.1 M NaCl pH 10.5) added to the cells in each well. This procedure overcomes any effect that cell density or culture medium may have on the absorption spectrum. The absorbance of the formazan produced by the viable cells was measured once for each well at 540 nm on a Labsystems EMS microplate reader (Life Sciences International). To calculate the cell viability cells treated with solvent alone were assigned a value of 100% absorbance indicating zero cytotoxicity, i.e. 100% viability. The cytotoxic profile of each drug was evaluated in triplicate 96 well plates. Each plate included several controls (media only, cells only and cells treated with solvent alone). The 96 well plate format allowed eight concentrations of the appropriate drug per plate, with eight replicates (i.e. eight separate wells) per drug concentration, i.e. 8 measurements of absorbance for each concentration of drug per plate. There were three triplicate plates per experiment resulting in a total of 24 measurements of absorbance per concentration of drug.

V79MZh1B1 cells = experiment: in vitro; conditions: for cytotoxicity in CYP1B1 expressing V79MZh1B1 cells: 24 h exposure, ANF at 1, 10 and 100 μM
Description: as §1, §2, §3

[4] = tested on: CYP1B1 in kidney tumour samples; experiment: Kidney tumour assay, EROD metabolism with and without inhibitor; format: biochemical
Description: The effect of a CYP1B1 inhibitor was confirmed in an assay using kidney tumour samples. A buffer and NADP regenerating system was allowed to equilibrate at 37° C. and EROD (5 μM final concentration) was then added. This was followed by the addition of either P450 supersomes (control) or the appropriate tumour sample (1 mg). Supersomes were incubated for 15 minutes and tumour samples for 40 minutes.

[5] = fold less cytotoxic than paclitaxel; cited from earlier work
in vitro = conditions: Chinese hamster
Description: as §1, §2, §3

[6] = 24 h drug exposure, MTT, concentration at which 50% of cells are viable
[7] = Cricetulus griseus, V79MZ, 24 h

Structure (SMILES): CC(C)C(=O)Nc1ccc([N+](=O)[O-])c(C(F)(F)F)c1 [Flutamide]
- Km for CYP1A1 relative to CYP1B1 (CYP1A1): 5 times
- Inhibition Type (CYP1B1 [1]): competitive
- pKi (CYP1B1 [1]): 6.00
- inhibition at 100 μM (CYP1B1 [1]): 53 to 99%
- biotransformation by CYP1B1 (CYP1B1 [2]): biotransformed by CYP1B1
- pKi (CYP1B1, CYP1A1, CYP1A2): 4.99 to 6.00
- inhibition type for CYP1B1, CYP1A1, and CYP1A2 activities [3]: competitive

Structure (SMILES): CC(=O)N1CCN(c2ccc(OCC3COC(Cn4ccnc4)(c4ccc(Cl)cc4Cl)O3)cc2)CC1 (stereo not drawn) [Ketoconazole]
- Inhibition Type (CYP1B1 [1]): non-competitive
- pKi (CYP1B1 [1]): 6.52 and 6.57

Structure (SMILES): O=P1(N(CCCl)CCCl)NCCCO1 (stereo not drawn) [Cyclophosphamide]
- inhibition of CYP1B1 activity, initial screening, in words (CYP1B1 [1]; initial screening, 1 μM ethoxyresorufin, 100 μM agent): did not inhibit CYP1B1 activity
- cytotoxicity in parental V79MZ cells (V79MZ cells; 24 h exposure, MTT, ANF at 1, 10 and 100 μM): No cytotoxicity
- cytotoxicity in CYP1B1 expressing V79MZh1B1 cells (V79MZh1B1 cells; MTT): No cytotoxicity

Structure (SMILES): N.N.O=C([O-])C1(C(=O)[O-])CCC1.[Pt+2] [Carboplatin]
- pIC50 (V79MZ cells; [6]): 4.10
- difference in cytotoxicity between CYP1B1 expressing and non-expressing cells (V79MZh1B1 cells; V79MZh1B1 compared with V79MZ, MTT): no significant difference
- pIC50 (V79MZh1B1 cells; read-out: IC50 V79MZhB1, 24 h drug exposure, MTT, CYP1B1 expressing cells): 4.00

Structure (SMILES): CC(=O)O[C@H]1C(=O)[C@@]2(C)[C@H]([C@H](OC(=O)c3ccccc3)[C@]3(O)C[C@H](OC(=O)[C@H](O)[C@@H](NC(=O)c4ccccc4)c4ccccc4)C(C)=C1C3(C)C)[C@]1(OC(C)=O)CO[C@@H]1C[C@@H]2O [Paclitaxel]
- pKi (CYP1B1 [1]): 5.11
- inhibition at 100 μM (CYP1B1 [1]): 53 to 99%
- pIC50 (V79MZ cells; [7]): 7.46
- biotransformation by CYP1B1 (CYP1B1 [2]): biotransformed by CYP1B1
- difference in cytotoxicity between CYP1B1 expressing and non-expressing cells (V79MZh1B1 cells): no significant difference

Structure (SMILES): COc1cccc2c1C(=O)c1c(O)c3c(c(O)c1C2=O)C[C@@](O)(C(C)=O)C[C@@H]3O[C@H]1C[C@H](N)[C@H](O)[C@H](C)O1 [Daunomycin]
- pKi (CYP1B1 [1]): 5.68 and 5.67
- inhibition at 100 μM (CYP1B1 [1]): 53 to 99%

Structure (SMILES): CC/C(=C(\c1ccccc1)c1ccc(OCCN(C)C)cc1)c1ccccc1 [Tamoxifen]
- pKi (CYP1B1 [1]): 5.30

Structure (SMILES): C[C@]12CC[C@H]3[C@@H](CCC4=CC(=O)CC[C@@]43C)[C@@H]1CC[C@@H]2O [Testosterone]
- Inhibition Type (CYP1B1 [1]): competitive

Structure (SMILES): O=c1cc(-c2ccccc2)oc2c1ccc1ccccc12 [α-naphthoflavone]
- CYP1B1 activity in metabolising EROD ([4]; kidney tumour Sample 1, plus 10 nM ANF (252 without)): 145 fmol/min/mg protein
- CYP1B1 activity in metabolising EROD ([4]; kidney tumour Sample 2, plus 10 nM ANF (993 without)): 470 fmol/min/mg protein
- CYP1B1 activity in metabolising EROD ([4]; kidney tumour Sample 3, plus 10 nM ANF (880 without)): 570 fmol/min/mg protein
- cytotoxicity in CYP1B1 expressing V79MZh1B1 cells (V79MZh1B1 cells; MTT): Neither cell line (parental or CYP1B1 expressing) showed cytotoxicity

Structure (SMILES): CC(=O)O[C@H]1C(=O)[C@@]2(C)[C@H]([C@H](OC(=O)c3ccccc3)[C@]3(O)C[C@H](OC(=O)[C@H](O)[C@@H](NC(=O)c4ccccc4)c4ccccc4)C(C)=C1C3(C)C)[C@]1(OC(C)=O)CO[C@@H]1[C@@H](O)[C@@H]2O [6-hydroxytaxol]
- cytotoxicity relative to parent compound paclitaxel [5]: 30 fold

Structure (SMILES): CC(=O)O[C@@]12CO[C@@H]1C[C@H](O)[C@@]1(C)C(=O)[C@H](O)C3=C(C)[C@@H](OC(=O)[C@H](O)[C@@H](NC(=O)OC(C)(C)C)c4ccccc4)C[C@@](O)([C@@H](OC(=O)c4ccccc4)[C@H]21)C3(C)C [Docetaxel]
- Inhibition Type (CYP1B1 [1]): competitive
- pKi (CYP1B1 [1]): 4.55
- inhibition at 100 μM (CYP1B1 [1]): 53 to 99%
- pIC50 (V79MZ cells; [7]): 7.66
- difference in cytotoxicity between CYP1B1 expressing and non-expressing cells (V79MZh1B1 cells): at least four-fold
- IC50 at 24 h (in vitro): 100 nM

Structure (SMILES): COc1cccc2c1C(=O)c1c(O)c3c(c(O)c1C2=O)C[C@@](O)(C(=O)CO)C[C@@H]3O[C@H]1C[C@H](N)[C@H](O)[C@H](C)O1 [Doxorubicin]
- pKi (CYP1B1 [1]): 5.59
- inhibition at 100 μM (CYP1B1 [1]): 53 to 99%
- pIC50 (V79MZ cells; [7]): 7.10
- difference in cytotoxicity between CYP1B1 expressing and non-expressing cells (V79MZh1B1 cells): no significant difference
- IC50 at 24 h (in vitro): 90 nM

Structure (SMILES): N.N.[Cl][Pt][Cl] [Cisplatin]
- pIC50 (V79MZ cells; [6]): 5.36

Structure (SMILES): O=c1[nH]cc(F)c(=O)[nH]1 [5-Fluorouracil]
- pIC50 (V79MZ cells; [7]): 4.15
- difference in cytotoxicity between CYP1B1 expressing and non-expressing cells (V79MZh1B1 cells): no significant difference
- IC50 at 24 h (in vitro): 80000 nM

Structure (SMILES): C[C@]12CC[C@@H]3c4ccc(O)cc4CC[C@H]3[C@@H]1CC[C@@H]2O [Estradiol]
- Inhibition Type (CYP1B1 [1]): competitive
